Key:
[1] = system: membrane compromised sperm; experiment: Dead gate intensity, yellow 5 and phenol red at higher concentrations (Example 6); type: cell-based, Jersey bull; details: Hoechst 12 μL/2 mL
sperm [2] = experiment: Split quality, phenol red as added split enhancing dye (Example 8); type: cell-based, bulls (Jersey, Holstein)
Experimental: Two bulls were collected for the Example 8. The Bull 1 was a Jersey bulls and Bull 2 was a Holstein collected substantially in the manner described in example 1. Sperm from Bull 1 extended to 160 million per with a first buffer, (TALP described in table 1 at a pH 7.4) and divided into two groups for staining. The first group was stained with 44 μM Hoechst 33342 and the second group was stained with 60 μM Hoechst 33342. Similarly, bull 2 was suspended to 160 million per mL the first buffer, (TALP described in table 1 at a pH 7.4) and divided into three groups for staining. The first group was stained with 28 μM Hoechst 33342 and the second group was stained with 44 μM Hoechst 33342 and the third group was stained with 66 μM Hoechst 33342. Each group was incubated for 1 hour at 34° C. and then extended in an equal volume of the second buffer. […] The stained samples were each treated with a variety of quenching dyes and combinations of quenching dyes indicated in below. […] After calibration, screen shots of sorting histograms were taken and histograms split quality was measured as a peak to valley ratio in the same way described in Example 5 with reference to FIG. 4 and the resulting data is found in Table 16.

sperm [3] = experiment: Split quality, split enhancing dyes at various concentrations and incubation times (Example 10); type: cell-based, bulls; details: 15, 45, 125 μM; 30-75 minutes; averaged over 8 bulls
Experimental: Eight bulls were collected, including 4 Jersey bulls, 3 Holstein bulls and one mixed dairy-breed. The ejaculates were collected at concentrations ranging from 1700×10^6 sperm/ml to 1100×10^6 sperm/ml and all had progressive motility of a least 60%.
Sperm from each bull was extended to 160 million per ml with a first buffer, (TALP described in table 1 at a pH 7.4) and stained with 64 μM (164/2 mL) Hoechst 33342 at 34° C. Additionally, Phenol Red, Red Food Dye No. 2, Red Food Dye No. 3, and Red Food Dye No. 4, were each tested as split enhancing dyes in the first buffer at concentrations of 15 μM, 45 μM and 125 μM. For each bull, each concentration of each dye was incubated for periods of 30 minutes, 45 minutes, 60 minutes, and 75 minutes were utilized before a second buffer with an additional dye was applied.
Each sample was then extended in an equal volume of a second buffer which comprised a 5.5 pH modified TALP having 25 μM yellow food dye No. 6 (acting as a dead quenching dye) in addition to the split enhancing dye provided in the first buffer. The second buffer was applied to every sample at 30 minutes, 45 minutes, 60 minutes, and 75 minutes. A control was additionally taken without any split enhancing dye for every bull at every time interval.
Sorting was performed on a MoFlo SX (Beckman Coulter, USA) in substantially the same manner described in Example 5. After calibration, screen shots of sorting histograms were taken and split quality was measured by peak to valley ratios in the same way described in Example 5 with reference to FIG. 4 and the resulting data, averaged over all 8 bulls, is found in Tables 18-21. Additionally, screen shots of bivariate plots were taken to measure the added dead quenching capacity of the mixed dead quenching and split enhancing dyes.

sperm [4] = experiment: Split quality, dead quenching dye combined with split enhancing dye (Example 7); type: cell-based, Jersey bull
Experimental: A single Jersey bull was collected at an initial sperm concentration 1810×10^6 sperm/ml in a volume of 3.9 ml. […] Samples were split into two equal aliquots and in one of each pair of samples, a stock solution of phenol red was added to make a final phenol red concentration of 620 μM. […] At each concentration, one control was compared to the addition of phenol red as a split enhancing dye at a concentration of 620 μM. Sorting was performed on a MoFlo SX (Beckman Coulter, USA) in substantially the same manner described in Example 5. After calibration, screen shots of sorting histograms were taken and split quality was measured by the peak to valley ration in the same way described in Example 5. The resulting data is found in Table 15.

sperm [5] = experiment: Post thaw motility Elk (Example 3); type: cell-based; details: post thaw 0 HR; RED TALP with 16 μL Hoechst 33342, Y6 with 14 μL
Experimental: (§1) Each of deer and elk were collected in the Tris-egg yolk catch fluid described as a catch media in Example 1, and shipped for sorting.
(§2) A portion of each of the deer and the elk were stained by the red food dye No. 40 treatment 40% with 16 μL Hoechst 33342 and the yellow food dye No. 6 treatment with 14 μL Hoechst 33342 as described in Example 1.
(§3) Samples were each bulk sorted with the same machine and parameters described in Example 1. Both sorted X and sorted Y sperm were collected into a single catch. The sorted samples were then frozen like those described in Example 1.
(§4) Frozen thawed samples were then tested for post thaw motilities and post thaw DNA fragmentation. Post thaw motilities were slightly higher in Elk sorted with a yellow quencher, while a more significant difference existed in progressive motility. In Table 10, post thaw DNA fragmentation in Elk can be seen at about double after 48 hours when red food dye No. 40 is compared to yellow food dye No. 6 as a dead quencher.

sperm [6] = experiment: Post thaw motility Deer (Example 3); type: cell-based; details: post thaw 0 HR; RED TALP with 16 μL Hoechst 33342, Y6 with 14 μL
Experimental: as §1, §2, §3, §4

[7] = system: membrane compromised sperm; experiment: Bivariate plots comparing dead quenching dyes (FIG. 3); type: cell-based; details: three bulls, equal amounts of Hoechst 33342 and of dye
From the text: FIG. 3 illustrates comparisons of bivariate plots generated in sex sorting sperm which reflect the intensity of the excited DNA selective fluorescent dye during sorting. Three bulls were stained with equal amounts of Hoechst 33342 and with an equal amount of yellow food dye No. 6 and red food dye No. 40. The region labeled as R4 surrounds what is considered the “dead” sperm population, while the region R1 is centered on viable, oriented sperm. It can be seen that for each bull yellow food dye no.

SMILES | Intensity ([1]; dye 125 μM, pH 7.40) [%] | Intensity ([1]; dye 250 μM, pH 7.40) [%] | Intensity ([1]; dye 500 μM, pH 7.40) [%] | Intensity ([1]; dye 750 μM, pH 7.40) [%] | Intensity ([1]; dye 875 μM, pH 7.40) [%] | Intensity ([1]; dye 1250 μM, second buffer pH 7.40) [%] | effect of adding phenol red on split quality (sperm [2]; each Hoechst staining level, with Red 40 or Yellow 6) | split enhancing effect compared to control (sperm [3]) | peak quality of combination versus dead quencher alone (sperm [4]; phenol red 620 μM with yellow food dye No. 6 62 μM, each sperm concentration tested) | Motile (sperm [5]) | Progressive (sperm [5]) | Progressive (sperm [6]) | Motile (sperm [6]) | PV (sperm [2]; Bull 1, Hoechst 33342 44 μM, R40 0, Y6 50 μM, PR 0) | quenching of the dead population compared to red food dye No. 40 [7] | Height of Peak Divided by Height of Valley (sperm [4]; 150 million cells per mL, Yellow 6 62 μM, Phenol Red 0 μM)
O=S1(=O)OC(c2ccc(O)cc2)(c2ccc(O)cc2)c2ccccc21 [Phenol Red, phenolsulfonphthalein] | 85 | 76 | 66 | 56 | 47 | 43 | always improved split quality | provided consistent split improvements at all concentrations after 30 minutes | gives better peak quality | – | – | – | – | – | – | –
COc1cc(S(=O)(=O)O)c(C)cc1N=Nc1c(O)ccc2cc(S(=O)(=O)O)ccc12 [Red 40, 6-hydroxy-5-[(2-methoxy-5-methyl-4-sulfophenyl)azo]-2-naphthalenesulfonic acid, reference compound] | – | – | – | – | – | – | – | – | – | 51.0 | 29.0 | 43.0 | – | – | – | –
O=S(=O)([O-])c1ccc(N=Nc2c(O)ccc3cc(S(=O)(=O)[O-])ccc23)cc1.[Na+].[Na+] [Yellow 6, Disodium 6-hydroxy-5[(4-sulfophenyl)azo]-2-naphthalenesulfononate] | – | – | – | – | – | – | – | – | – | 55.5 | 38.0 | 53.2 | 67.5 | 1.20 | superior quenching | 1.30

— patent publication US9581587B2, “Sperm staining and sorting methods” (INGURAN, LLC, priority 2011, dated 2017)
